Legend:
Type in all cases: in vivo, human
[1] = Clinical trial: RAD001 trough levels in blood
[2] = test system: B/Brisbane/60/2008; test: Clinical trial: hemagglutination inhibition titers and seroconversion, vaccine strain B
Method: The trial was observer-blind because the placebo in the RAD001 0.5 mg daily and 20 mg weekly cohorts differed slightly from the RAD001 tablets in those cohorts. […] The treatment duration for all cohorts was 6 weeks during which time subjects underwent safety evaluations in the clinic every 2 weeks. After subjects had been dosed for 4 weeks, RAD001 steady state levels were measured pre-dose and at one hour post dose. After completing the 6 week course of study drug, subjects were given a 2 week drug free break to reverse any possible RAD001-induced immunosuppression, and then were given a 2012 seasonal influenza vaccination (Agrippal®, Novartis Vaccines and Diagnostics, Siena, Italy) containing the strains H1N1 A/California/07/2009, H3N2 A/Victoria/210/2009, B/Brisbane/60/2008. Four weeks after influenza vaccination, subjects had serum collected for influenza titer measurements. Antibody titers to the 3 influenza vaccine strains as well as to 2 heterologous strains (A/H1N1 strain A/New Jersey/8/76 and A/H3N2 strain A/Victoria/361/11) were measured by standard hemagglutination inhibition assay (Kendal, A P et al. (1982) Concepts and procedures for laboratory-based influenza surveillance. Atlanta: Centers for Disease Control and Prevention B17-B35).
The ability of RAD001 to improve immune function in elderly volunteers was evaluated by measuring the serologic response to the 2012 seasonal influenza vaccine. The hemagglutination inhibition (HI) geometric mean titers (GMT) to each of the 3 influenza vaccine strains at baseline and 4 weeks after influenza vaccination are provided in Table 22. The primary analysis variable was the HI GMT ratio (4 weeks post vaccination/baseline). […] This endpoint was chosen because a 1.2-fold increase in the influenza GMT ratio induced by the MF-59 vaccine adjuvant was associated with a decrease in influenza illness (Iob, A et al. (2005) Epidemiol Infect 133:687-693).
Rates of seroconversion 4 weeks after influenza vaccination were also evaluated. Seroconversion was defined as the change from a negative pre-vaccination titer (i.e., HI titer <1:10) to post-vaccination HI titer ≥1:40 or at least 4-fold increase from a non-negative (≥1:10) pre-vaccination HI titer.

[3] = test system: A/H3N2 strain A/Victoria/361/11; test: Clinical trial: HI titers and seroconversion, heterologous A/H3N2 strain

With CO[C@H]1C[C@@H]2CC[C@@H](C)[C@@](O)(O2)C(=O)C(=O)N2CCCC[C@H]2C(=O)O[C@H]([C@H](C)C[C@@H]2CC[C@@H](OCCO)[C@H](OC)C2)CC(=O)[C@H](C)/C=C(\C)[C@@H](O)[C@@H](OC)C(=O)[C@H](C)C[C@H](C)/C=C/C=C/C=C/1C [RAD001, (1R,9S,12S,15R,16E,18R,19R,21R,23S,24E,26E,28E,30S,32S,35R)-1,18-dihydroxy-12-{(1R)-2-[(1S,3R,4R)-4-(2-hydroxyethoxy)-3-methoxycyclohexyl]-1-methylethyl}-19,30-dimethoxy-15,17,21,23,29,35-hexamethyl-11,36-dioxa-4-aza-tricyclo[30.3.1.04,9]hexatriaconta-16,24,26,28-tetraene-2,3,10,14,20-pentaone] the “average RAD001 trough level” value ([1]; 5 mg weekly, 0.3 ng/ml is the lower limit of quantification) was “below detection limits”, the “trough level of study regimens relative to approved regimens, fold lower” value ([1]; dosing regimens used in the immunization study) was 3-20 fold and the “HI GMT, B” value ([2]; Baseline (2 weeks prior to influenza vaccination), RAD001 0.5 mg daily, N = 50) was 44.2. The “HI GMT, B” value ([2]; Baseline (2 weeks prior to influenza vaccination), RAD001 5 mg weekly, N = 49) was 64.8, the “Percent of subjects with seroconversion to influenza 4 weeks after vaccination, B” value (“Percent of subjects with seroconversion” for short) ([2]; Intention to Treat Population, 0.5 mg, N = 48) was 27% and the “Percent of subjects with seroconversion” value ([2]; Intention to Treat Population, 5 mg, N = 49) was 22%. The “Percent of subjects with seroconversion” value ([2]; Intention to Treat Population, 20 mg, N = 48) was 19%, the “GMT ratio (week 4 post vaccination/baseline), B” value ([2]; RAD001 0.5 mg daily, N = 50) was 2.5 and the “GMT ratio (week 4 post vaccination/baseline), B” value ([2]; RAD001 5 mg weekly, N = 49) was 2.2. For the same compound, the “GMT ratio (week 4 post vaccination/baseline), B” value ([2]; RAD001 20 mg weekly, N = 49) was 2.1, the “Percent of subjects with seroconversion” value ([2]; Subjects with Baseline Titers <=40, 0.5 mg, * p-value < 0.05 versus placebo) was 40* Percent and the “Percent of subjects with seroconversion” value ([2]; Subjects with Baseline Titers <=40, 5 mg) was 33%. The “Percent of subjects with seroconversion” value ([2]; Subjects with Baseline Titers <=40, 20 mg) was 28%, the “HI GMT, B” value ([2]; Week 4 after influenza vaccination, RAD001 0.5 mg daily, N = 50) was 98.4 and the “HI GMT, B” value ([2]; Week 4 after influenza vaccination, RAD001 5 mg weekly, N = 49) was 117.3. For the same compound, the “HI GMT, B” value ([2]; Week 4 after influenza vaccination, RAD001 20 mg weekly, N = 49) was 99.2, the “Percentage of subjects who seroconvert to heterologous strain 4 weeks after seasonal influenza vaccination, A/H3N2 strain: A/Victoria/361/11” value ([3]; RAD001 0.5 mg daily) was 38% and the “Percentage of subjects who seroconvert to heterologous strain 4 weeks after seasonal influenza vaccination, A/H3N2 strain: A/Victoria/361/11” value ([3]; RAD001 5 mg weekly, * p-value < 0.05 versus placebo) was 39%*. For the same compound, the “Percentage of subjects who seroconvert to heterologous strain 4 weeks after seasonal influenza vaccination, A/H3N2 strain: A/Victoria/361/11” value ([3]; RAD001 20 mg weekly, * p-value < 0.05 versus placebo) was 40%*, the “increase in the HI GMT ratios for the heterologous strain” value ([3]; RAD001 as compared to placebo cohorts) was “higher” and the “H3N2 seroconversion rate, heterologous strain” value ([3]; pooled RAD001 cohorts, versus 20% placebo (p=0.007)) was 39%.
